# Assay results from ChEMBL document CHEMBL1128998, “Chemical synthesis, DNA cleavage and antitumor activity of molecules with (Z)-7-sulfonyl-3-hexene-1,5-diyne functionalities” (Bioorg Med Chem Lett, 1996).
# How the values were obtained:
# Type in all cases: functional, cell-based
# Conditions in all cases: Homo sapiens
# HepG2 [1] = test: Compound was tested in vitro for growth inhibition of Hep G2, […] cell line.
# COLO 205 [2] = test: Compound was tested in vitro for growth inhibition of COLO 205, colon cell line; Range=4-10 ug/ml
# KB [3] = test: Compound was tested in vitro for growth inhibition of KB, oral epidermoid cell line; Range=4-10 ug/ml
# SK-BR-3 [4] = test: Compound was tested in vitro for growth inhibition of SK-BR-3, breast adenocarcinoma cell line; Range=4-10 ug/ml
# MOLT-4 = test: Compound was tested in vitro for growth inhibition of Molt-4, leukemia cell line.
# HepG2 [5] = test: Compound was tested in vitro for growth inhibition of Hep G2, […] cell line
# KB [6] = test: Compound was tested in vitro for growth inhibition of KB, oral epidermoid cell line.
# HepG2 [7] = test: Compound was tested in vitro for growth inhibition of Hep G2, […] cell line; Range=4-10 ug/ml
# COLO 205 [8] = test: Compound was tested in vitro for growth inhibition of COLO 205, colon cell line.
# SK-BR-3 [9] = test: Compound was tested in vitro for growth inhibition of SK-BR-3, […] cell line.
IC50 (HepG2 [1]),IC50 (COLO 205 [2]),IC50 (KB [3]),IC50 (SK-BR-3 [4]),IC50 (MOLT-4),IC50 (HepG2 [5]),IC50 (KB [6]),IC50 (HepG2 [7]),IC50 (COLO 205 [8]),IC50 (SK-BR-3 [9]),Compound
> 10 µg/mL,10 µg/mL,10 µg/mL,10 µg/mL,,,,,,,COC(=O)c1ccccc1S(=O)(=O)CC#C/C=C\C#CCO
> 10 µg/mL,10 µg/mL,10 µg/mL,10 µg/mL,< 4 µg/mL,,,,,,O=S(=O)(CC#C/C=C\C#CCO)c1ccc2ccccc2c1
,10 µg/mL,10 µg/mL,10 µg/mL,,> 10 µg/mL,,,,,O=S(=O)(CC#C/C=C\C#CCO)c1ccccc1
,10 µg/mL,,10 µg/mL,< 4 µg/mL,,10 µg/mL,10 µg/mL,,,O=S(=O)(CC#Cc1cc2ccccc2cc1C#CCO)c1ccccc1
,,,,< 4 µg/mL,,10 µg/mL,10 µg/mL,< 4 µg/mL,< 4 µg/mL,O=S(=O)(CC#Cc1ccccc1C#CCO)c1ccccc1
< 4 µg/mL,,,,,,,,,,O=S(=O)(CC#Cc1ccccc1C#CCO)c1ccc2ccccc2c1
> 10 µg/mL,10 µg/mL,10 µg/mL,10 µg/mL,,,,,,,COc1ccc(S(=O)(=O)CC#C/C=C\C#CCO)cc1
